Experimental data published in US8450067B2, “Method for obtaining anti-idiotype antibodies” (Omrix Biopharmaceuticals Inc., priority 2002, dated 2013).
Like-named read-outs stand apart in the source and are kept apart here.

Tests used:
[1] = tested on: anti-anti-dsDNA (anti-Id) isolated from IVIG; experiment: Direct binding of anti-Id to the synthetic peptides by ELISA; parameters: species or system human; conditions: Table 2
Description: (§1) The binding of anti-Id to the peptides was tested by ELISA.
(§2) ELISA plates were coated by 10 ug/ml of peptides in PBS overnight at 4° C. The plates were blocked with 3% BSA for 1hr at 37° C. Anti-Id was added at different concentrations. IgG purified from one donor was used as negative control.
(§3) The binding of the immunoglobulin was probed with goat anti-human IgG conjugated to alkaline phosphatase and the appropriate substrate. Between each step, extensive washings were performed with 0.05% PBS-Tween.
(§4) The same protocol was used as above, but the peptides used in this study were taken from the literature except for peptide number 1 which is the first peptide in the previous experiment.

[2] = tested on: control IgG (IgG purified from one donor); experiment: Direct binding ELISA, negative control immunoglobulin; parameters: species or system human; conditions: Table 2
Description: as §1, §2, §3, §4

[3] = tested on: immunoglobulin elution peak from a peptide column bound with peptide 707; experiment: ELISA of peptide column eluate with biotinylated peptides (707 column); format: binding, human; conditions: FIG. 4
Description: To measure the binding efficacy of peptide column eluates (706 and 707) the following ELISA was performed:
Microtiter plates (Costar, USA) were coated overnight at 2-8° C. with 10 μg/ml NeutrAvidin (Pierce, USA) suspended in 0.1M, pH 8.8, of carbonate-bicarbonate buffer (Sigma USA). The coating solution was removed, washed three times with washing buffer (1×PBS) and 200 μl of blocking solution (freshly prepared 1% I Block, Tropix, USA) per well was added and incubated for 1 hour at 37° C. Coated and blocked plates can be stored at −20° C. for a month before use.
Tested samples diluted in the blocking solution were mixed in a separate tube with 1 μg/ml (final concentration) of the appropriate biotinylated peptide and the mixture was incubated for 1 hour at 37° C. 100 μl from each reaction tube was then transferred to the blocked microtiter plate and incubated at 37° C. for ½ hour. A 100 μl of 1:5000 Alkaline Phosphatase conjugate goat anti human IgG (Heavy and light chain from Jackson, USA) diluted in the blocking buffer was applied into the microtiter well and incubated for 1 hour. […] The measurement was done photometrically at 405 nm.

mice = conditions: responder mice (BALB/c, SJL), cited from earlier work
[4] = anti-Id 10 μg/ml, plates coated with 10 ug/ml peptide

Substance	binding of anti-Id to peptide (OD at 405 nm) ([1]; anti-Id 1 μg/ml)	binding of anti-Id to peptide (OD at 405 nm) ([1]; anti-Id 2.5 μg/ml)	binding of anti-Id to peptide (OD at 405 nm) ([1]; anti-Id 5 μg/ml)	binding of anti-Id to peptide (OD at 405 nm) [1, 4]	binding of control IgG to peptide (OD at 405 nm) ([2]; control IgG 1 μg/ml)	binding of control IgG to peptide (OD at 405 nm) ([2]; control IgG 5 μg/ml)	specificity of the elution peak from the column bound with the peptide [3]	induction of SLE-like disease in mice (mice)	induction of SLE-like disease in mice (mice; listed as pCDR3)
KYKRKYP [Pep 15]	0.049	0.067	0.117	0.287	0.037	0.068	–	–	–
PLPDWRV [Pep 12]	0.042	0.072	0.273	1.356	0.043	0.045	–	–	–
PPQKHLL [Pep 14]	0.113	0.234	0.611	0.987	0.079	0.083	–	–	–
YYCARFLWEPYAMDYWGQGS [Pep 707, 16.6 monoclonal antibody CDR3-based peptide]	–	–	–	–	–	–	reacted in a non-specific manner	can cause SLE symptoms	induced a mild SLE-like disease
